Source: US20260015350A1, “AZAQUINAZOLINE PAN-KRAS INHIBITORS” (Mirati Therapeutics, Inc., priority 2022, published 2026)

Legend:
KRas^G12D = biological target: T1, KRas^G12D (Homo sapiens, UniProt P01116, G12D); assay: KRas binding assay (TR-FRET tracer displacement), KRas G12D
T1 construct: Biotinylated KRas (corresponding to amino acids 1-169, produced at Accelegan Inc.); biotin (biotinylated); purchased Accelegan Inc

KRas^G12R = biological target: T2, KRas^G12R (Homo sapiens, UniProt P01116, G12R); assay: KRas binding assay (TR-FRET tracer displacement), KRas G12R
T2 construct: Biotinylated KRas (corresponding to amino acids 1-169, produced at Accelegan Inc.); biotin (biotinylated); purchased Accelegan Inc

KRas^G12V = biological target: T3, KRas^G12V (Homo sapiens, UniProt P01116, G12V); assay: KRas binding assay (TR-FRET tracer displacement), KRas G12V
T3 construct: Biotinylated KRas (corresponding to amino acids 1-169, produced at Accelegan Inc.); biotin (biotinylated); purchased Accelegan Inc

[1] = system: KRas-mediated phosphorylation of ERK in AsPC-1 cells; assay: Inhibition of KRas-mediated phosphorylation of ERK (Cisbio HTRF pERK), AsPC-1 cells; assay type: cell-based; conditions: Homo sapiens, ASPC1, AsPC-1 cells; HTRF pERK
Procedure, shortened: (§1)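 Using 6,000 cells per well, compounds are applied for 3 hrs and cells then lysed at 4° C with shaking for 40 mins. Phospho-ERK is measured by HTRF after 2 hrs of lysate incubation with the d2/Cryptate antibody mixture.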

[2] = system: KRas-mediated phosphorylation of ERK in H727 cells; assay: Inhibition of KRas-mediated phosphorylation of ERK (Cisbio HTRF pERK), H727 cells; assay type: cell-based; conditions: Homo sapiens, NCI-H727, H727 cells; HTRF pERK
Procedure, shortened: as §1

T3 sequence (P01116 1-169 isoform P01116-2 G12V): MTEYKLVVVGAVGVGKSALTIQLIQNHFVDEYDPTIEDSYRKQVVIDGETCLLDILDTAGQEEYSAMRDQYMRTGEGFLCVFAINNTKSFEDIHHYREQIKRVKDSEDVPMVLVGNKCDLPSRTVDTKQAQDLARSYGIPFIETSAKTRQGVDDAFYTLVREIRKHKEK
T1 sequence (P01116 1-169 isoform P01116-2 G12D): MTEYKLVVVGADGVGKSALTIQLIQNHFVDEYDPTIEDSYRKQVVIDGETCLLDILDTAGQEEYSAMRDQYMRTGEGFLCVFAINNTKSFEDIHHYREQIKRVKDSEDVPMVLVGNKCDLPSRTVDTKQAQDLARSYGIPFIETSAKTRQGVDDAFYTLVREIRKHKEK
T2 sequence (P01116 1-169 isoform P01116-2 G12R): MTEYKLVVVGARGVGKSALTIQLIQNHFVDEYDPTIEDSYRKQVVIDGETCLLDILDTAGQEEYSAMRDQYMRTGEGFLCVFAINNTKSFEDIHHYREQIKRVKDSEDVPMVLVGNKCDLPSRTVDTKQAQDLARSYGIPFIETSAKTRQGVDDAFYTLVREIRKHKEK

Row | Structure (SMILES) | IC50 (KRas^G12D) | IC50 (KRas^G12R) | IC50 (KRas^G12V) | IC50 [1] | IC50 [2]
1 | CCc1c(F)ccc2cc(O)cc(-c3ncc4c(N5CCO[C@@H](CS(N)(=O)=O)C5)nc(OC[C@@]56CCCN5C[C@H](F)C6)nc4c3F)c12 [Example 636, 1-((R)-4-(7-(8-ethyl-7-fluoro-3-hydroxynaphthalen-1-yl)-8-fluoro-2-(((2R,7aS)-2-fluorotetrahydro-1H-pyrrolizin-7a(5H)-yl)methoxy)pyrido[4,3-d]pyrimidin-4-yl)morpholin-2-yl)methanesulfonamide] | 10 nM | < 2 nM | 3 nM | 4190 nM | 1810 nM
2 | CCc1c(F)ccc2cc(O)cc(-c3ncc4c(NCc5cn(C(=O)N(C)C)nc5N)nc(OC[C@@]56CCCN5C[C@H](F)C6)nc4c3F)c12 [Example 639, 3-amino-4-(((7-(8-ethyl-7-fluoro-3-hydroxynaphthalen-1-yl)-8-fluoro-2-(((2R,7aS)-2-fluorohexahydro-1H-pyrrolizin-7a-yl)methoxy)pyrido[4,3-d]pyrimidin-4-yl)amino)methyl)-N,N-dimethyl-1H-pyrazole-1-carboxamide] | 13 nM | 2 nM | 2 nM | 1040 nM | 718 nM
3 | CCc1c(F)ccc2cc(O)cc(-c3ncc4c(N5C[C@@H]6[C@@H](CC(N)=O)NC(=O)[C@@H]6C5)nc(OC[C@@]56CCCN5C[C@H](F)C6)nc4c3F)c12 [Example 641, 2-((1R,3aS,6aR)-5-(7-(8-ethyl-7-fluoro-3-hydroxynaphthalen-1-yl)-8-fluoro-2-(((2R,7aS)-2-fluorotetrahydro-1H-pyrrolizin-7a(5H)-yl)methoxy)pyrido[4,3-d]pyrimidin-4-yl)-3-oxooctahydropyrrolo[3,4-c]pyrrol-1-yl)acetamide] | 3120 nM | 540 nM | 632 nM | > 10000 nM | > 10000 nM
4 | CCc1c(F)ccc2cc(O)cc(-c3ncc4c(N5C[C@@H]6[C@@H](C(F)(F)F)C[C@]6(CO)C5)nc(OC[C@@]56CCCN5C[C@H](F)C6)nc4c3F)c12 [Example 647, 5-ethyl-6-fluoro-4-(8-fluoro-2-(((2R,7aS)-2-fluorohexahydro-1H-pyrrolizin-7a-yl)methoxy)-4-((1R,5R,6S)-1-(hydroxymethyl)-6-(trifluoromethyl)-3-azabicyclo[3.2.0]heptan-3-yl)pyrido[4,3-d]pyrimidin-7-yl)naphthalen-2-ol] | 1990 nM | 582 nM | 581 nM | 9340 nM | > 10000 nM
5 | CCc1c(F)ccc2cc(O)cc(-c3ncc4c(N5CC6(CO)CC(C7CCCC7)(C5)C6)nc(OC[C@@]56CCCN5C[C@H](F)C6)nc4c3F)c12 [Example 648, 4-(4-(1-cyclopentyl-5-(hydroxymethyl)-3-azabicyclo[3.1.1]heptan-3-yl)-8-fluoro-2-(((2R,7aS)-2-fluorohexahydro-1H-pyrrolizin-7a-yl)methoxy)pyrido[4,3-d]pyrimidin-7-yl)-5-ethyl-6-fluoronaphthalen-2-ol] | 9120 nM | 7370 nM | 6080 nM | > 10000 nM | > 10000 nM
6 | CCc1c(F)ccc2cc(O)cc(-c3ncc4c(N5CCCC6(C5)CN(S(C)(=O)=O)C6)nc(OC[C@@]56CCCN5C[C@H](F)C6)nc4c3F)c12 [Example 654, 5-ethyl-6-fluoro-4-(8-fluoro-2-(((2R,7aS)-2-fluorohexahydro-1H-pyrrolizin-7a-yl)methoxy)-4-(2-(methylsulfonyl)-2,6-diazaspiro[3.5]nonan-6-yl)pyrido[4,3-d]pyrimidin-7-yl)naphthalen-2-ol] | 19 nM | 18 nM | 25 nM | 1410 nM | 1790 nM

More lines, in order of falling IC50 (KRas^G12D), values ahead:

Row | IC50 (KRas^G12D) | IC50 (KRas^G12R) | IC50 (KRas^G12V) | IC50 [1] | IC50 [2] | Structure (SMILES)
7 | 2880 nM | 633 nM | 291 nM | > 10000 nM | > 10000 nM | CCc1c(F)ccc2cc(O)cc(-c3ncc4c(N5CCC(N6CCCCS6(=O)=O)C5)nc(OC[C@@]56CCCN5C[C@H](F)C6)nc4c3F)c12 (stereo partly drawn) [Example 655, 2-(1-(7-(8-ethyl-7-fluoro-3-hydroxynaphthalen-1-yl)-8-fluoro-2-(((2R,7aS)-2-fluorotetrahydro-1H-pyrrolizin-7a(5H)-yl)methoxy)pyrido[4,3-d]pyrimidin-4-yl)pyrrolidin-3-yl)-1,2-thiazinane 1,1-dioxide]
8 | 1640 nM | 766 nM | 454 nM | > 10000 nM | > 10000 nM | CCc1c(F)ccc2cc(O)cc(-c3ncc4c(N5Cc6n[nH]c(C(=O)N(C)C)c6C5)nc(OC[C@@]56CCCN5C[C@H](F)C6)nc4c3F)c12 [Example 635, 5-(7-(8-ethyl-7-fluoro-3-hydroxynaphthalen-1-yl)-8-fluoro-2-(((2R,7aS)-2-fluorotetrahydro-1H-pyrrolizin-7a(5H)-yl)methoxy)pyrido[4,3-d]pyrimidin-4-yl)-N,N-dimethyl-2,4,5,6-tetrahydropyrrolo[3,4-c]pyrazole-3-carboxamide]
9 | 462 nM | 1610 nM | 582 nM | > 10000 nM | > 10000 nM | CCc1c(F)ccc2cc(O)cc(-c3ncc4c(N5CCC(N6C(=O)OC7CNCC76)CC5)nc(OC[C@@]56CCCN5C[C@H](F)C6)nc4c3F)c12 (stereo partly drawn) [Example 659, 3-(1-(7-(8-ethyl-7-fluoro-3-hydroxynaphthalen-1-yl)-8-fluoro-2-(((2R,7aS)-2-fluorotetrahydro-1H-pyrrolizin-7a(5H)-yl)methoxy)pyrido[4,3-d]pyrimidin-4-yl)piperidin-4-yl)hexahydro-2H-pyrrolo[3,4-d]oxazol-2-one]
10 | 125 nM | 51 nM | 40 nM | 2280 nM | 1390 nM | CCc1c(F)ccc2cc(O)cc(-c3ncc4c(N5CCCC(S(=O)(=O)C(F)F)C5)nc(OC[C@@]56CCCN5C[C@H](F)C6)nc4c3F)c12 (stereo partly drawn) [Example 652, 4-(4-(3-((difluoromethyl)sulfonyl)piperidin-1-yl)-8-fluoro-2-(((2R,7aS)-2-fluorotetrahydro-1H-pyrrolizin-7a(5H)-yl)methoxy)pyrido[4,3-d]pyrimidin-7-yl)-5-ethyl-6-fluoronaphthalen-2-ol]
11 | 123 nM | 16 nM | 20 nM | > 10000 nM | > 10000 nM | CCc1c(F)ccc2cc(O)cc(-c3ncc4c(SCc5cc(C(=O)N(C)C)nn5C)nc(OC[C@@]56CCCN5C[C@H](F)C6)nc4c3F)c12 [Example 653, 5-(((7-(8-ethyl-7-fluoro-3-hydroxynaphthalen-1-yl)-8-fluoro-2-(((2R,7aS)-2-fluorohexahydro-1H-pyrrolizin-7a-yl)methoxy)pyrido[4,3-d]pyrimidin-4-yl)thio)methyl)-N,N,1-trimethyl-1H-pyrazole-3-carboxamide]
12 | 41 nM | 16 nM | 34 nM | 930 nM | 1270 nM | CCc1c(F)ccc2cc(O)cc(-c3ncc4c(N5CCCC(N6C(=O)CCC6=O)C5)nc(OC[C@@]56CCCN5C[C@H](F)C6)nc4c3F)c12 (stereo partly drawn) [Example 638, 1-(1-(7-(8-ethyl-7-fluoro-3-hydroxynaphthalen-1-yl)-8-fluoro-2-(((2R,7aS)-2-fluorotetrahydro-1H-pyrrolizin-7a(5H)-yl)methoxy)pyrido[4,3-d]pyrimidin-4-yl)piperidin-3-yl)pyrrolidine-2,5-dione]
